Where a SMILES comes first, the peptide text is derived from it. [ ]: non-standard residue; d: D form. The star is where a group is joined. Daunorubicin(13-NOCH2CO) = COc1cccc2c1C(=O)c1c(O)c3c(c(O)c1C2=O)C[C@@](O)(C(C)=NOCC(=O)*)C[C@@H]3O[C@H]1C[C@H](N)[C@H](O)[C@H](C)O1; Nle = CCCC[C@H](N)C(=O)O
How the values were obtained:
[1] = tested on: PC-3 human prostate adenocarcinoma cells; assay: MTT assay, in vitro cytostatic effect; type: cell-based; conditions: Homo sapiens, 24 h treatment at 3.125–25 µM, then cultured up to 72 h, mean ± SD, n = 2 independent experiments with four parallels
Procedure: (§1) Cells were distributed into 96-well tissue culture plates with an initial cell number of 5.0 × 10^3 per well. After 24 h incubation at 37 °C, the cells were treated with the compounds in 200 µL final volume containing 1.0 v/v% DMSO and 10% H2O. […] After incubation, the cells were washed twice with a serum-free medium. To determine the in vitro cytostatic effect, the cells were further cultured up to 72 h in a 10% serum-containing medium. A solution of 3-(4,5-dimethylthiazol-2-yl)-2,5-diphenyltetrazolium bromide and MTT-solution, (45 µL, 2 mg/mL, final concentration: […]) were added to each well. The respiratory chain [67] and other electron transport systems reduce MTT, and thereby form non-water-soluble violet formazan crystals within the cell. […] After 3 h of incubation, the cells were centrifuged for 5 min at 1000 g and the supernatant was removed. The obtained formazan crystals were dissolved in DMSO (100 μL) and the optical density (OD) of the samples was measured at λ = 540 and 620 nm, respectively, using ELISA Reader (iEMS Reader, Labsystems, Finland). OD620 values were subtracted from OD540 values. The percentage of cytostasis was calculated by using the following equation:Cytostatic effect (%) = [1 − (ODtreated/ODcontrol)] × 100(1)
(§2) Values of ODtreated and ODcontrol correspond to the optical densities of the treated and the control cells, respectively. In each case, two independent experiments were carried out with four parallel measurements. The 50% inhibitory concentration (IC50) values were determined from the dose–response curves. The curves were defined using Microcal™ Origin 2018 software: cytostasis was plotted as a function of concentration, fitted to a sigmoidal curve, and based on this curve, the half-maximal inhibitory concentration (IC50) value was determined. IC50 represents the concentration of a compound that is required for 50% inhibition in vitro and is expressed in micromolar units.

[2] = tested on: MDA-MB-231 human breast adenocarcinoma cells; assay: MTT assay, in vitro cytostatic effect; type: cell-based; conditions: Homo sapiens, MDA-MB-231, 24 h treatment at 3.125–25 µM, then cultured up to 72 h, mean ± SD, n = 2 independent experiments with four parallels
Procedure: as §1, §2

[3] = tested on: MDA-MB-453 human metastatic epithelial breast carcinoma cells; assay: MTT assay, in vitro cytostatic effect; type: cell-based; conditions: Homo sapiens, MDA-MB-453, 24 h treatment at 3.125–25 µM, then cultured up to 72 h, mean ± SD, n = 2 independent experiments with four parallels
Procedure: as §1, §2

[4] = tested on: mice; conditions: mouse experimental model; cited from earlier work
Procedure: Before testing the effect of our newly developed PDCs on tumour growth in vivo, we performed a chronic toxicity study to determine the ideal dosage of the compounds. Administration of daunorubicin is shown to cause severe cardiotoxic side effects, therefore, its maximum tolerated dose is 1 mg/kg in the case of our experimental model. However, when conjugated to targeting moieties, its side effects can be reduced; moreover, its tumour inhibition capabilities can be increased.

[5] = tested on: MRC-5 human fibroblasts; assay: Toxicity on non-cancerous cells (dose-response curves); type: cell-based; conditions: Figure S15
Description: The lack of toxicity of the conjugates on healthy cells was checked on MRC-5 human fibroblasts, proving that they are non-toxic on non-cancerous cells (see Supplementary Materials, Figure S15).
Figure S15. Dose-response curves of the PDCs and Dau on MRC-5 human fibroblast cell line. Only […]
Figure S16. Flow cytometry measurements for the uptake of all the PDCs on MDA-MB-231 (A), MDA-MB-453 (B) and PC-3 (C) human cancer cell lines. The percentage of cells containing the Dau-conjugates was evaluated on four concentrations (%, mean ± SD, n= 2). Given that above 12.5 µM the internalisation may not only be receptor-mediated, this concentration was considered to com-pare the uptake of the bioconjugates. […]

[6] = tested on: PC-3 human prostatic adenocarcinoma xenograft in NOD-SCID mice; assay: In vivo tumour growth inhibition, subcutaneous PC-3 xenograft; design: species or system mouse; conditions: free drug 1 mg/kg, two treatments, n = 8
Procedure: The testing of the antitumour conjugates was carried out in a murine xenograft model. It was established by inoculating subcutaneously 100 µL of cell suspension of PC-3 prostate cancer cells with a concentration of 2 × 10^7 cells/mL.
Once the tumour volume reached 60 mm^3, mice were randomised and assigned to different groups for each treatment, respectively 0.9% saline as control, free daunorubicin, L5, and L6. Each group consisted of eight mice. Peptide–drug conjugates were injected intraperitoneally every 5th day, five times in total (daunorubicin dosage of 10 mg/kg for each treatment). In the case of free daunorubicin, two treatments were administered at the same time points as the first two treatments with conjugates, with a dosage of 1 mg/kg, the maximum tolerated dose (MTD). Weight and tumour size of mice were monitored throughout the whole experiment, two times per week. On day 33, mice were euthanized, and primary tumour, heart, lung, liver and spleen were harvested and stored in 4% formalin (Molar Chemicals, Halásztelek, Hungary). After 2–3 days of incubation in formalin, tissue samples were examined macroscopically. Organs and primary tumours from the different treatment groups were weighed and inspected under a stereomicroscope to see any occurrent changes in morphology compared to the controls.

[7] = Stability in incomplete (serum-free) DMEM; type: in vitro ADME; conditions: 25 µM, 37 °C, 600 rpm, LC–MS, n = 2
Procedure: The conjugates were incubated in incomplete DMEM for 3 h (similarly to the internalisation studies) or in 2.5% FBS containing DMEM for 24 h (conditions for the MTT assay). […] No significant loss of L1 and L5 (<20%) or L6 (<30%) was observed after 3 h (see Supplementary Materials, Figure S17).
DMSO stock solutions of the conjugates (2.5 mM) were diluted in DMEM free from or containing 2.5% FBS, to a final concentration of 25 μM. The mixture was incubated and stirred at 37 °C, 600 rpm, and 30 µL aliquots were collected after 0 min, 0.5, 1, 2, 4, 8 and 24 h, in duplicates. Then, to each sample, 90 µL of 0.1% formic acid containing MeCN was added and the samples were frozen at −25 °C for ≥30 min to aid protein precipitation. Large FBS components were removed by centrifugation (15 min, 5000 g, 4 °C). Aliquots of 50 µL supernatant were diluted with an equal volume of ddH2O + 0.1% formic acid and analysed by LC–MS. Control measurements were performed in the same manner (25 μM bioconjugate in 100% ddH2O).

[8] = Metabolism in rat liver lysosomal homogenate; type: in vitro ADME; conditions: 0.2 M NaOAc pH 5.05, 37 °C, conjugate–lysosomal protein 1:10 (w/w), HPLC-MS, triplicates
Procedure: All the conjugates contain a cathepsin B cleavable spacer, either GFLG or LRRY, to allow the release of the toxic payload in lysosomes after receptor-mediated internalisation. We explored the metabolism of L1, L3, L5 and L6 in rat liver lysosomal homogenate to mimic this situation. The experiment was performed over 72 h, sampling at 0 min, 15 min, 30 min, 1 h, 2 h, 6 h, 24 h and 72 h in triplicates. All the (Dau=Aoa-LRRY)–BBN (7-14) conjugates have a similar degradation profile and they quickly release the active metabolite Dau=Aoa-Leu-OH, which can be detected after 15 min (Figure 3). […] Its signal cannot be detected anymore already after 1 h.
The rat liver lysosomal homogenate was prepared based on our previously published procedure, with small modifications: livers from two male Wistar rats (32.6 g and 41.2 g, respectively) were collected, minced with a knife and homogenised in two volumes of ice-cold 0.3 M sucrose, using a T25 Ultra Turrax homogenizer (∼100 mL). […] The protein concentration was determined by measuring the absorbance at 260 nm and 280 nm, and was calculated using the formula: Concentration (μg/μL) = 1.55 ∗ A280 − 0.76 ∗ A260; it was determined as 71.76 μg/μL. […]
The conjugates (2.5 μg/μL in DMSO, 5 μL) were diluted with 0.2 M NaOAc solution (pH 5.05, 495 μL) to 0.025 μg/μL. […] The composition of the samples was determined by HPLC-MS.

[9] = Stability in mouse plasma; type: in vitro ADME; conditions: 37 °C, HPLC-MS
Procedure: Due to their low IC50 values and internalisation on the tested cell lines, conjugates L1, L5 and L6 were chosen for investigation of their stability in mouse plasma, as potential candidates for in vivo studies. They were incubated at a concentration of 10 µM, with mouse plasma for 24 h at 37 °C. Samples were collected at 0 h, 30 min, 1 h, 2 h, 4 h, 8 h and 24 h and analysed by HPLC-MS. […] Furthermore, after 2 h, L1 starts to release the toxic metabolite Dau=Aoa-Leu-OH, whereas this happens only after 24 h for L5 and L6, in a considerably low amount (see Supplementary Materials, Figures S18–S20).
The conjugates were dissolved in ddH2O containing 10% DMSO (stock solution: 100 μM) and diluted with mouse plasma to a final concentration of 10 μM. The mixture was incubated and stirred at 37 °C, 600 rpm, and 30 µL aliquots were collected after 0 min, 0.5, 1, 2, 4, 8 and 24 h, in triplicates. Then, to each plasma sample, 90 µL of 0.1% formic acid containing MeCN was added, and the samples were frozen at −25 °C for ≥30 min to aid protein precipitation. Large plasma proteins were removed by centrifugation (15 min, 5000× g, 4 °C). Aliquots of 50 µL supernatant were diluted with an equal volume of ddH2O + 0.1% formic acid and analysed by LC–MS. Control measurements were performed in the same manner (10 μM bioconjugate in 100% ddH2O).

Row | SMILES | IC50 [1] | IC50 [2] | IC50 [3] | Maximum tolerated dose [4] | Toxicity on MRC-5 human fibroblasts [5] | Day at which fitness of mice decreased to a critical state [6] | Effect on tumour growth [6] | Loss of conjugate after 3 h [7] | Time after which the signal of the intact conjugate cannot be detected anymore [8] | Time after which release of the toxic metabolite Dau=Aoa-Leu-OH starts ([9]; 10 µM, for L5 and L6 in a considerably low amount) | remaining at 8 h, 10 μM ([9]; 600 rpm, n = 3, read-out: Detected fraction after 8 h) | half-life at 10 μM ([9]; 600 rpm, n = 3, read-out: t1/2 in mouse plasma (converted)) | time to release of active metabolite Dau=Aoa-Leu-OH
1 | COc1cccc2c1C(=O)c1c(O)c3c(c(O)c1C2=O)C[C@@](O)(C(C)=O)C[C@@H]3O[C@H]1C[C@H](N)[C@H](O)[C@H](C)O1 [Dau, daunorubicin, reference compound] | 750 ± 10 nM | 900 ± 60 nM | 810 ± 70 nM | 1 mg/kg | reveals toxicity | 26 days | did not significantly reduce tumour growth | – | – | – | – | – | –
2 | CCCC[C@H](NC(=O)[C@H](CC(C)C)NC(=O)[C@H](Cc1c[nH]cn1)NC(=O)CNC(=O)[C@@H](NC(=O)[C@H](C)NC(=O)[C@H](Cc1c[nH]c2ccccc12)NC(=O)[C@H](CCC(N)=O)NC(=O)[C@H](Cc1ccc(O)cc1)NC(=O)[C@H](CCCNC(=N)N)NC(=O)[C@H](CCCNC(=N)N)NC(=O)[C@H](CC(C)C)NC(=O)CON=C(C)[C@]1(O)Cc2c(O)c3c(c(O)c2[C@@H](O[C@H]2C[C@H](N)[C@H](O)[C@H](C)O2)C1)C(=O)c1c(OC)cccc1C3=O)C(C)C)C(N)=O [L1, (Dau=Aoa)-LRRY-BBN(7-14)[Nle14]] ({Daunorubicin(13-NOCH2CO)}-LRRYQWAVGHL[Nle]-NH2) | – | – | – | – | – | – | – | < 20% | ≤ 1 h | 2 h | 20% | 3.8 h | < 30 min
